Results published in patent US10221138B2, “Biaryl derivatives as GPR120 agonists” (LG CHEM, LTD., priority 2013, dated 2019).

target: T1, hGPR120 (Homo sapiens, UniProt Q5NUL3); assay: Measurement of activity of GPR120 agonist (cell-based calcium fluorescence assay); conditions: CHO-K1 cells expressing Ga16 and hGPR120, Calcium 5 dye fluorescence; activity class; read-out: EC50
T1 construct: expressed in transfected cells; host or cells: CHO-K1
T1 sequence (Q5NUL3 1-361): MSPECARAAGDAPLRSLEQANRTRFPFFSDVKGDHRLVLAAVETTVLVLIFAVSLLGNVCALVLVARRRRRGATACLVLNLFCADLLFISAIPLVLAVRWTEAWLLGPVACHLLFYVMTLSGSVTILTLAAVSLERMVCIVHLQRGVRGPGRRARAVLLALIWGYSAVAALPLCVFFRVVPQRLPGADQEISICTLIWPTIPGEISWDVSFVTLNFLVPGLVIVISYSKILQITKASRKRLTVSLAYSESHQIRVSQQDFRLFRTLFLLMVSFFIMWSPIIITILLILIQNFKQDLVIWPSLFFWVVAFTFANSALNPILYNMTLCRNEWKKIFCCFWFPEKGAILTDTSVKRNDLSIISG
Procedure, shortened: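 CHO-K1 cells co-expressing Gα16 and hGPR120, plated 18 h, loaded with Calcium 5 dye for 1 h at 37 °C, then given serially diluted agonists (final 0.5% DMSO). Fluorescence increase expressed as relative % of the 1% DMSO-only signal.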

Row | SMILES | EC50 [nM]
1 | O=C(O)CCCCSc1c(F)cc(-c2cccnc2OC2CCC2)cc1F [Example 261, 5-[4-(2-cyclobutoxy-pyridin-3-yl)-2,6-difluoro-phenylsulfanyl]-pentanoic acid] | < 200
2 | O=C(O)CCCCCCOc1c(F)cc(-c2cccnc2OC2CCCC2)cc1F [Example 263, 7-[4-(2-cyclopentyloxy-pyridin-3-yl)-2,6-difluoro-phenoxy]-heptanoic acid] | 2000 to 20000
3 | COc1ncccc1-c1cc(F)c(OCCCC(=O)O)c(F)c1 [Example 268, 4-[2,6-difluoro-4-(2-methoxy-pyridin-3-yl)-phenoxy]-butyric acid] | 200 to 2000
4 | C=CCOc1ncccc1-c1cc(F)c(OCCCC(=O)O)c(F)c1 [Example 269, 4-[4-(2-allyloxy-pyridin-3-yl)-2,6-difluoro-phenoxy]-butyric acid] | 200 to 2000
5 | CC#CCOc1ncccc1-c1cc(F)c(OCCCC(=O)O)c(F)c1 [Example 270, 4-[4-(2-but-2-ynyloxy-pyridin-3-yl)-2,6-difluoro-phenoxy]-butyric acid] | 2000 to 20000
6 | O=C(O)CCCCCOc1c(F)cc(-c2cccnc2OC2CCC2)cc1F [Example 271, 6-[4-[2-(cyclobutoxy)-3-pyridyl]-2,6-difluoro-phenoxy]hexanoic acid] | 200 to 2000
7 | O=C(O)CCCCCOc1c(F)cc(-c2cccnc2OCC2CC2)cc1F [Example 273, 6-[4-[2-(cyclopropylmethoxy)-3-pyridyl]-2,6-difluoro-phenoxy]hexanoic acid] | 200 to 2000
8 | O=C(O)CCCCCOc1c(F)cc(-c2cccnc2SC2CCCC2)cc1F [Example 275, 6-[4-(2-cyclopentylsulfanyl-3-pyridyl)-2,6-difluoro-phenoxy]hexanoic acid] | 200 to 2000
9 | O=C(O)CCCCCSc1c(F)cc(-c2cccnc2OC2CCCC2)cc1F [Example 276, 6-[4-(2-cyclopentyloxy-pyridin-3-yl)-2,6-difluoro-phenylsulfanyl]-hexanoic acid] | 200 to 2000
10 | O=C(O)CCCCCSc1c(F)cc(-c2cccnc2SC2CCCC2)cc1F [Example 277, 6-[4-(2-cyclopentylsulfanyl-pyridin-3-yl)-2,6-difluoro-phenylsulfanyl]-hexanoic acid] | 200 to 2000
11 | O=C(O)CCCCCSc1c(F)cc(-c2cccnc2SC2CCC2)cc1F [Example 278, 6-[4-(2-cyclobutylsulfanyl-pyridin-3-yl)-2,6-difluoro-phenylsulfanyl]-hexanoic acid] | 200 to 2000
12 | CCCSc1ncccc1-c1cc(F)c(SCCCCCC(=O)O)c(F)c1 [Example 279, 6-[2,6-difluoro-4-(2-propylsulfanyl-pyridin-3-yl)-phenylsulfanyl]-hexanoic acid] | 200 to 2000

Continued, values first:

Row | EC50 [nM] | SMILES
13 | 200 to 2000 | O=C(O)CCCSc1c(F)cc(-c2cccnc2NCC2CC2)cc1F [Example 251, 4-{4-[2-(cyclopropylmethyl-amino)-pyridin-3-yl]-2,6-difluoro-phenylsulfanyl}-butyric acid]
14 | < 200 | O=C(O)CCCCSc1c(F)cc(-c2cccnc2OC2CCCC2)cc1F [Example 252, 5-[4-(2-cyclopentyloxy-pyridin-3-yl)-2,6-difluoro-phenylsulfanyl]-pentanoic acid]
15 | 200 to 2000 | CC(C)Oc1ncccc1-c1cc(F)c(SCCCCC(=O)O)c(F)c1 [Example 253, 5-[2,6-difluoro-4-(2-isopropoxy-pyridin-3-yl)-phenylsulfanyl]-pentanoic acid]
16 | < 200 | O=C(O)CCCCSc1ccc(-c2cccnc2OC2CCCC2)cc1 [Example 254, 5-[4-(2-cyclopentyloxy-pyridin-3-yl)-phenylsulfanyl]-pentanoic acid]
17 | 200 to 2000 | CC(C)Oc1ncccc1-c1ccc(SCCCCC(=O)O)cc1 [Example 255, 5-[4-(2-isopropoxy-pyridin-3-yl)-phenylsulfanyl]-pentanoic acid]
18 | < 200 | CCCSc1ncccc1-c1cc(F)c(SCCCCC(=O)O)c(F)c1 [Example 257, 5-[2,6-difluoro-4-(2-propylsulfanyl-pyridin-3-yl)-phenylsulfanyl]-pentanoic acid]
19 | < 200 | O=C(O)CCCCSc1ccc(-c2cccnc2SC2CCCC2)cc1 [Example 258, 5-[4-(2-cyclopentylsulfanyl-pyridin-3-yl)-phenylsulfanyl]-pentanoic acid]
20 | < 200 | O=C(O)CCCCSc1ccc(-c2cccnc2SC2CCC2)cc1 [Example 259, 5-[4-(2-cyclobutylsulfanyl-pyridin-3-yl)-phenylsulfanyl]-pentanoic acid]
21 | < 200 | O=C(O)CCCCSc1c(F)cc(-c2cccnc2OCC2CCC2)cc1F [Example 260, 5-[4-(2-cyclobutylmethoxy-pyridin-3-yl)-2,6-difluoro-phenylsulfanyl]-pentanoic acid]
22 | < 200 | O=C(O)CCCCCOc1c(F)cc(-c2cccnc2OC2CCCC2)cc1F [Example 262, 6-[4-(2-cyclopentyloxy-pyridin-3-yl)-2,6-difluoro-phenoxy]-hexanoic acid]
23 | 200 to 2000 | CC(C)Oc1ncccc1-c1ccc(OCCCCC(=O)O)c(F)c1 [Example 264, 5-[2-fluoro-4-(2-isopropoxy-pyridin-3-yl)-phenoxy]-pentanoic acid]
24 | < 200 | O=C(O)CCCCOc1ccc(-c2cccnc2SC2CCCC2)cc1F [Example 265, 5-[4-(2-cyclopentylsulfanyl-pyridin-3-yl)-2-fluoro-phenoxy]-pentanoic acid]
25 | < 200 | O=C(O)CCCCOc1ccc(-c2cccnc2SC2CCC2)cc1F [Example 266, 5-[4-(2-cyclobutylsulfanyl-pyridin-3-yl)-2-fluoro-phenoxy]-pentanoic acid]
26 | < 200 | O=C(O)CCCCOc1ccc(-c2cccnc2OC2CCCC2)cc1F [Example 267, 5-[4-(2-cyclopentyloxy-pyridin-3-yl)-2-fluoro-phenoxy]-pentanoic acid]
27 | < 200 | O=C(O)CCCCCOc1c(F)cc(-c2cccnc2OCC2CCC2)cc1F [Example 272, 6-[4-[2-(cyclobutylmethoxy)-3-pyridyl]-2,6-difluoro-phenoxy]hexanoic acid]
28 | < 200 | O=C(O)CCCCCOc1c(F)cc(-c2cccnc2SC2CCC2)cc1F [Example 274, 6-[4-(2-cyclobutylsulfanyl-3-pyridyl)-2,6-difluoro-phenoxy]hexanoic acid]
